In patent US8748428B2, “Use of a PKC inhibitor” (Novartis AG, priority 2010, dated 2014):

Experiments:
Assay type in all cases: cell-based
[1] = tested on: DB cells; assay: Growth inhibition, CellTiter-Glo, 5 days; settings: Homo sapiens, 120 h, GC DLBCL, no NFkB mutation, 5 days treatment, read-out: growth inhibitory IC50, DB
Description: (§1) Two pharmacological PKC inhibitors: (i) the pan-PKC inhibitor, Sotrastaurin, also known as AEB071, and (ii) the PKCa/b-selective compound, 3-[2-chloro-7-[(dimethylamino)methyl]-1-naphthalenyl]-4-[7-[2-(2-methoxyethoxy)ethoxy]-1H-indol-3-yl]-1H-pyrrole-2,5-dione (referred to herein as “Compound B”), were used to evaluate the proliferation of several diffuse large B cell lymphoma (DLBCL) lines. The IKKb-selective inhibitors N-(6-chloro-7-methoxy-9H-β-carbolin-8-yl)-2-methylnicotinamide (referred to herein as “MLN120B”) and N-[(2R,6R)-2,6-dimethyl-4-piperidinyl]-4-(7-fluoro-1H-indol-3-yl)-2-pyrimidinamine (referred to herein as “Compound A”) were used as control compounds. ABC DLBCL cell lines (OCI-LY3, OCI-LY10, HBL1, U2932, TMD8, Su-DHL2) and GC DLBCL cell lines (Su-DHL4, DB, K-422) were treated for 5 days with PKC inhibitors (A) Sotrastaurin (AEB071) or (B) Compound B; IKKb inhibitors (C) MLN120B or (D) Compound A. Cells were plated in 96-well plates (Corning, #3358) at 5000 cells/well in 100 μL and treated with DMSO or inhibitors at concentrations ranging from 160 nM to 20 μM (2-fold dilutions). Following 5 days of treatment, cells were lysed with CellTiter-Glo® Luminescent Cell Viability Assay reagent (Promega, G7573), lysates were transferred to opaque 96-well plates (Corning, #3971), and luminescence signal was read using the Envision. Percent growth was calculated relative to median DMSO signal.
(§2) While all ABC DLBCL cell lines were sensitive to IKK inhibitors, their response to PKC inhibitors varied strongly (Table 1A below). The cell lines that are insensitive to PKC inhibitors, OCI-Ly3 and Su-DHL2, have reported mutations in CARD11 and A20, respectively. […] The fact that these oncogenic lesions are thought to function downstream of PKCβ in CBM-NFkB signaling provides a molecular rationale for their insensitivity. […] See, Compagno, M., et al, “Mutations of multiple genes cause deregulation of NF-κB in diffuse large B-cell lymphoma” Nature, 459 (7247), 717-722 (2009)). […] Tables 1A and 1B below show the growth inhibitory IC50 values, which were determined by measuring ATP concentration (Cell Titer Glo), for the indicated compounds in the indicated cell lines. IC50 values were determined as the concentration of compound that leads to 50% reduction of cell growth.

[2] = tested on: Su-DHL2 cells; assay: Growth inhibition, CellTiter-Glo, 5 days; settings: Homo sapiens, SU-DHL-2, 120 h; ABC DLBCL, A20 mutation; 5 days treatment; read-out: growth inhibitory IC50, Su-DHL2
Description: as §1, §2

[3] = tested on: TMD8 cells; assay: Growth inhibition, CellTiter-Glo, 5 days; settings: Homo sapiens, TMD8, 120 h; ABC DLBCL, CD79B mutation; 5 days treatment; read-out: growth inhibitory IC50, TMD8
Description: as §1, §2

[4] = tested on: U2392 cells; assay: Growth inhibition, CellTiter-Glo, 5 days; settings: 120 h; ABC DLBCL, TAK1 mutation; 5 days treatment; read-out: growth inhibitory IC50, U2392
Description: as §1, §2

[5] = tested on: OCI-Ly10 cells; assay: Growth inhibition, CellTiter-Glo, 5 days; settings: Homo sapiens, OCI-Ly10, 120 h; ABC DLBCL, CD79A mutation; 5 days treatment; read-out: growth inhibitory IC50, OCI-Ly10
Description: as §1, §2

[6] = tested on: OCI-Ly3 cells; assay: Growth inhibition, CellTiter-Glo, 5 days; settings: Homo sapiens, OCI-Ly3, 120 h; ABC DLBCL, CARD11 mutation; 5 days treatment; read-out: growth inhibitory IC50, OCI-Ly3
Description: as §1, §2

[7] = tested on: K422 cells; assay: Growth inhibition, CellTiter-Glo, 5 days; settings: 120 h; GC DLBCL, no NFkB mutation; 5 days treatment; read-out: growth inhibitory IC50, K422
Description: as §1, §2

[8] = tested on: Su-DHL4 cells; assay: Growth inhibition, CellTiter-Glo, 5 days; settings: Homo sapiens, SU-DHL-4, 120 h; GC DLBCL, no NFkB mutation; 5 days treatment; read-out: growth inhibitory IC50, Su-DHL4
Description: as §1, §2

[9] = tested on: HBL1 cells; assay: Growth inhibition, CellTiter-Glo, 5 days; settings: HBL1, 120 h; ABC DLBCL, CD79B mutation; 5 days treatment; read-out: growth inhibitory IC50, HBL1
Description: as §1, §2

[10] = tested on: IL-6 mRNA in TMD8 cells; assay: IL-6 mRNA expression (Taqman); settings: TMD8, 24 hours, 10 nM to 10 uM
Description: Constitutive activation of the NFkB pathway is a molecular hallmark of ABC DLBCL cells and is required for their proliferation and survival. See Davis, R. E., et al., J Exp Med, 194(12), 1861-1874 (2001). To confirm that the growth inhibitory effect in response to PKC inhibition is mediated through modulation of NFkB pathway signaling, the expression of NFkB pathway genes were monitored in response to AEB071 treatment. The NFkB-pathway-induced cytokine IL-6 was used as a marker to study NFkB pathway modulation by PKC inhibitors. See Lam, L. T., et al., Blood 111(7):3701-13 (2008). To measure IL-6 mRNA levels, cells were plated in […] plates in 2 ml media at 2M/ml, then treated with DMSO or inhibitors from 10 nM to 10 uM (4-fold dilutions) for 24 hours. Total RNA was harvested using the RNeasy kit (Qiagen, #74104) and cDNA was made from 1 μg total RNA using the High Capacity cDNA kit (ABI, #4368814), according to manufacturer's protocols. Taqman probes (ABI: IL-6, Hs00174131_m1) were used with Gene Expression Master Mix (ABI, 4369510) to determine the amount of mRNA expression for IL-6 relative to an endogenous control gene (ABI: TBP, 4326322E) and the DMSO control using the delta-delta Ct method.

[11] = tested on: IL-6 secretion in HBL1 cells; assay: IL-6 secretion (Quantikine ELISA); settings: HBL1, ELISA of supernatant, 48 hours
Method: (§3) The fact that IL-6 is secreted from cells allowed for monitoring of IL-6 levels in cell supernatants. IL-6 secretion was determined by Quantikine ELISA using supernatant from treated cells. Cells were washed and plated at 100,000 cells/well in 100 ul in fresh media in round-bottom 96-well plates (Corning, #3358). The cells were then treated with DMSO or inhibitors at concentrations ranging from 80 nM to 10 uM (2-fold dilutions), and incubated at 37° C. for 48 hours. Then the conditioned media was transferred to v-bottom 96-well plates (Nunc, #12565436). The level of IL-6 secretion was determined by the Quantkine colorimetric ELISA kit from (R & D Systems, #D6050), according to the manufacturer's instructions. For the IL-6 ELISA, the conditioned media was diluted 1:2 with fresh media (except ion: the HBL1 conditioned media was not diluted, it was used 1:1). In FIG. 2, IL-6 secretion for each dose is expressed as a percentage of IL-6 secretion from cells treated with DMSO.

[12] = tested on: IL-6 secretion in TMD8 cells; assay: IL-6 secretion (Quantikine ELISA); settings: Homo sapiens; TMD8, ELISA of supernatant, 48 hours
Method: as §3

`C[C@@H]1CC(Nc2nccc(-c3c[nH]c4c(F)cccc34)n2)C[C@@H](C)N1` (stereo partly drawn) [Compound A, N-[(2R,6R)-2,6-dimethyl-4-piperidinyl]-4-(7-fluoro-1H-indol-3-yl)-2-pyrimidinamine] gave an IC50 [1] of over 20 µM, an IC50 [2] of 15 µM and an IC50 [3] of 0.2 µM. It also gave an IC50 [4] of 2.5 µM, an IC50 [5] of 0.3 µM and an IC50 [6] of 0.4 µM. For the same compound, the IC50 [7] was 10 µM, the IC50 [8] was 10 µM and the IC50 [9] was 2.5 µM.
`COCCOCCOc1cccc2c(C3=C(c4c(Cl)ccc5ccc(CN(C)C)cc45)C(=O)NC3=O)c[nH]c12` [Compound B, 3-[2-chloro-7-[(dimethylamino)methyl]-1-naphthalenyl]-4-[7-[2-(2-methoxyethoxy)ethoxy]-1H-indol-3-yl]-1H-Pyrrole-2,5-dione] was tested, and the “IL-6 mRNA expression” value [10] was “reduced IL-6 mRNA expression in a dose-dependent manner”, the IC50 [11] was under 0.2 µM and the IC50 [12] was under 0.2 µM. The IC50 [1] was over 20 µM, the IC50 [2] was 15 µM and the IC50 [3] was 0.2 µM. For the same compound, the IC50 [4] was 10 µM, the IC50 [5] was 0.5 µM and the IC50 [6] was over 20 µM. The IC50 [7] was 11 µM, the IC50 [8] was 7.5 µM and the IC50 [9] was 0.5 µM.
With `O=C1NC(=O)C(c2c[nH]c3ccccc23)=C1c1nc(N2CCNCC2)nc2ccccc12` [Compound D, 3-(1H-Indol-3-yl)-4-[2-(piperazin-1-yl)quinazolin-4-yl]pyrrole-2,5-dione] the IC50 [1] was over 20 µM, the IC50 [2] was over 20 µM and the IC50 [3] was 0.2 µM. The IC50 [4] was 3 µM, the IC50 [6] was 15 µM and the IC50 [8] was 15 µM. The IC50 [9] was 0.2 µM.
With `CN(C)C[C@@H]1CCn2cc(c3ccccc32)C2=C(C(=O)NC2=O)c2cn(c3ccccc23)CCO1` [LY333531, (9S)-9-[(dimethylamino)methyl]-6,7,10,11-tetrahydro-9H,18H-5, 21:12,17-dimethenodibenzo[e,k]pyrrolo[3,4-h][1,4,13]oxadiazacyclohexadecine-18,20(19H)-dione] the “IL-6 mRNA expression” value [10] was “reduced IL-6 mRNA expression in a dose-dependent manner”.
For `COc1c(Cl)cc2c([nH]c3cnccc32)c1NC(=O)c1cccnc1C` [MLN120B, N-(6-chloro-7-methoxy-9H-β-carbolin-8-yl)-2-methylnicotinamide], the IC50 [1] was over 40 µM, the IC50 [2] was 10 µM and the IC50 [3] was 10 µM. For the same compound, the IC50 [4] was 10 µM, the IC50 [5] was 10 µM and the IC50 [6] was 12 µM. It also gave an IC50 [7] of over 40 µM, an IC50 [8] of over 20 µM and an IC50 [9] of 10 µM.
